Assay [1] addresses T1, GPR139 (Homo sapiens, UniProt Q6DWJ6).
T1 construct: hIL-2Ra signal peptide (N); expressed in transfected cells
T1 sequence (Q6DWJ6 2-353 limits assumed): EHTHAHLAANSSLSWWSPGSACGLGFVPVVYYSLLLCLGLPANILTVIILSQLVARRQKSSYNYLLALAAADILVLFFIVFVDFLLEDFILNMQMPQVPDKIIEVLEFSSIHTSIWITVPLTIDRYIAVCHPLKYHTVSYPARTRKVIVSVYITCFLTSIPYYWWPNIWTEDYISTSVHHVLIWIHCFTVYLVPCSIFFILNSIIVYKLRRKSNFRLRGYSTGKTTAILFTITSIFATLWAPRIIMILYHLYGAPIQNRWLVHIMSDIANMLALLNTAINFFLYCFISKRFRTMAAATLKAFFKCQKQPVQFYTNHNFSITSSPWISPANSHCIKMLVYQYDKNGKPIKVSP
Nature of the assay: Repeat of proposed literature pairing (mass redistribution and/or internalization). Format: cell-based. As to conditions: GPR139. The text has this: DMR assays provide a single integrated readout of ligand-dependent cellular response, utilizing an optical biosensor in specialized microplates to detect wavelength shifts of reflected light as it passes through the biosensor and the lower portion of the cell (∼150-200 nm). As a signal pathway agnostic approach, DMR assays are well-suited to the study of GPCRs ([Fang et al., 2008], [Schröder et al., 2011]). The mass redistribution response (Δ picometer (pm)) likely reflects a number of intracellular events, including cytoskeletal rearrangement, protein trafficking and receptor internalization. Orphan receptor-expressing cells were gently washed twice with assay buffer (HBSS with 1 mM CaCl2, 1 mM MgCl2, 20 mM HEPES, 0.01% pluronic F-68, pH 7.4) containing 0.1% DMSO and cells were equilibrated for 90 min at 22°C in the EPIC Benchtop (BT) System (Corning) to establish a stable DMR signal. After 3-5 min baseline recordings, peptides (10 μM) were added in duplicate wells using an electronic 384-channel Viaflo pipette (Integra Biosciences, Switzerland) and DMR responses were measured for 60 min at 22°C. 100 nM norepinephrine was included as an internal assay control to assess the cellular DMR response via endogenously-expressed adrenoceptors in the TREx 293 cells. Real-time data were processed using the BT to column converter MS-Excel macro (Corning) and analyzed in GraphPad Prism 7.0. DMR recordings in peptide screening experiments were buffer and solvent corrected and the area under the curve (AUC) was quantified. For subsequent validation experiments, peptides were diluted in assay buffer containing 0.1% DMSO and DMR assays were performed as above. […] Data represent mean ± standard error of the mean (SEM) from at least 3 biologically independent experiments.
A TR-FRET real-time internalization assay was used to examine peptide-dependent changes in orphan receptor localization as described previously ([Foster and Bräuner-Osborne, 2018]). Surface-expressed SNAP-tagged receptors were labeled with a cell-impermeable luminescent terbium cryptate (100 nM SNAP Lumi4-Tb; Cisbio, France) for 1 hr at 37°C. Cells were washed to remove excess terbium and incubated with fluorescein-O-acetic acid (100 μM; Sigma Aldrich) for 5 min at 37°C. Peptides were added as for DMR assays, and internalization responses were recorded for 60 min at 37°C using an EnVision 2104 Multimode plate reader (PerkinElmer). 100 nM GLP-1 was used as a positive control for SNAP-GLP1R internalization. Real-time internalization responses were calculated based on TR-FRET (excitation 340 nm; emission 520 nm and 615 nm), and were expressed as the ratio between donor (terbium) and acceptor (fluorescein) emission. For peptide screening analysis (both DMR and internalization assays), we calculated the area under the curve from the real-time traces. […] Validation experiments for receptor internalization were performed as above. Internalization data was processed in MS-Excel and area under the curve was used to generate concentration-response curves using GraphPad Prism 7.0. Data represent mean ± standard error of the mean (SEM) from at least 3 biologically independent experiments.

Assay [2] has as its target T1, GPR139. Briefly: IP1 accumulation. Format: cell-based. As to conditions: mean, SEM and n. The text has this: Supplement mmc7.xlsx, sheet "Peptide validation data" | column: Emax; pEC50
The target of assay [3] is T1, GPR139. Nature of the assay: β-arrestin recruitment (Tango), validation. Format: cell-based. The text has this: (§1) Supplement mmc7.xlsx, sheet "Peptide validation data" | column: Comment
Assay [4] has as its target T2, GPR55 (Homo sapiens, UniProt Q9Y2T6). Briefly: Dynamic mass redistribution (DMR), concentration-response. It is filed as cell-based. More on the design: hIL-2Ra signal peptide (N); expressed in transfected cells. As to conditions: GPR55, data from single experiment (n = 1). Summed up: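 Doxycycline-induced (0.1 μg/ml) SNAP-tagged receptors in TREx 293 cells, equilibrated 90 min at 22°C in HEPES-buffered HBSS, pH 7.4, with 0.1% DMSO. Peptide-evoked optical wavelength shift recorded for 60 min at 22°C, buffer/solvent corrected and quantified as area under the curve. Mean ± SEM of at least 3 independent experiments.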

Assay [5] deals with T2, GPR55. Briefly: Real-time receptor internalization (TR-FRET), concentration-response. Format: cell-based. More on the design: hIL-2Ra signal peptide (N); expressed in transfected cells. As to conditions: GPR55, data from single experiment (n = 1). Summed up:
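Doxycycline-induced (0.1 μg/ml) SNAP-tagged receptor cells had surface receptors labeled with 100 nM Lumi4-Tb for 1 h at 37°C, then 100 μM fluorescein-O-acetic acid for 5 min. Peptide-induced internalization was recorded by TR-FRET for 60 min at 37°C as donor/acceptor emission ratio. Area under the curve gave concentration-response curves; mean ± SEM, ≥3 independent experiments.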

In assay [6] the target is T2, GPR55. Nature of the assay: β-arrestin recruitment (Tango). It is filed as cell-based. More on the design: hIL-2Ra signal peptide (N); expressed in transfected cells.
The target of assay [7] is T3, GPR15 (Homo sapiens, UniProt P49685).
T3 construct: hIL-2Ra signal peptide (N); expressed in transfected cells
T3 sequence (P49685 2-360 limits assumed): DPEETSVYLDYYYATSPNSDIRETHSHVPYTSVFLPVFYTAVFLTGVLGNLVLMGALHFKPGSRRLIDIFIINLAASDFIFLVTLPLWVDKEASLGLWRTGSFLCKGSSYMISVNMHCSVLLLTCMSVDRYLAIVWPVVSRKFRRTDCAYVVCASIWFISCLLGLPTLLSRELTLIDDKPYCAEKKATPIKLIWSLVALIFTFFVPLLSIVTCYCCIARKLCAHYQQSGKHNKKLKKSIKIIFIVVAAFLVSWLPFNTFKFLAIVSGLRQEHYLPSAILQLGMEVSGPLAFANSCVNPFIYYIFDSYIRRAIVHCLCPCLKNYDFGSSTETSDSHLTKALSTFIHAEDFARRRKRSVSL
Briefly: cAMP inhibition (Gi/o), HTRF with forskolin. Format: cell-based. As to conditions: GPR15L cleavage variants versus peptide 64; Figure 5, Table S7.

In assay [8] the test system is GPR15. Briefly: Repeat of proposed literature pairing. Format: cell-based, human. The text has this:
Supplement mmc7.xlsx, sheet "Hit summary and classification" | column: Priority orphans

For assay [9], the system named is GPR15. Briefly: Repeat of proposed literature pairing (mass redistribution and/or internalization). Format: cell-based, human. As to conditions: target GPR15; reported ligand tested on receptor-expressing cell line.
Assay [10] addresses T4, GPR176 (Homo sapiens, UniProt Q14439).
T4 construct: host or cells: HTLA cells (HEK293-derived)
T4 sequence (Q14439 1-515): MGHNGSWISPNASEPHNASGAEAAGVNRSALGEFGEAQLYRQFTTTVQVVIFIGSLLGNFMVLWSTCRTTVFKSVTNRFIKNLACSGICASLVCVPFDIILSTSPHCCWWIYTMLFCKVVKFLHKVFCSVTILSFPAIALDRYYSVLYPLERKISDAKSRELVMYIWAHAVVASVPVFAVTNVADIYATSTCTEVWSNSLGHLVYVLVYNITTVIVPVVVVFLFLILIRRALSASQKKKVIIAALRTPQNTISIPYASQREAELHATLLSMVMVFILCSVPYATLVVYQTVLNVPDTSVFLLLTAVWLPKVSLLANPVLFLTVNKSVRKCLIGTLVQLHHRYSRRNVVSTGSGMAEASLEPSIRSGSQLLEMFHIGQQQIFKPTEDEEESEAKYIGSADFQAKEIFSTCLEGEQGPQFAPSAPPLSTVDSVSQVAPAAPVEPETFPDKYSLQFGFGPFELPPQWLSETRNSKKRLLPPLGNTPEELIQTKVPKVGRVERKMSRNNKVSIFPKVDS
Nature of the assay: Dynamic mass redistribution (DMR), validation. Format: cell-based.
Description: as §1

Assay [11] has as its target T4, GPR176. Nature of the assay: Real-time receptor internalization, validation. It is filed as cell-based.
Description: as §1

Assay [12] deals with T4, GPR176. Nature of the assay: β-arrestin recruitment (Tango), indicative pairing. It is filed as cell-based. As to conditions: mean, n = 3.
For assay [13], the system named is 120 GPCR targets, including all available orphan receptors and 27 known class A peptide receptors. Briefly: Peptide library screen, β-arrestin recruitment (Tango, fold change, 10 μM). Format: cell-based, human. As to conditions: Tango; receptor(s) at which the known library peptide was active, among its known GPCR target(s); validated pairings. Summed up: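 HTLA cells (HEK293 with tTA-dependent luciferase and β-arrestin2-TEV) transiently transfected with Tango GPCR constructs, then stimulated overnight with 10 μM peptides in 1% dFBS medium. Luciferase luminescence read after 15–20 min Bright-Glo incubation at room temperature.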

Assay [14] deals with T4, GPR176. Nature of the assay: Dynamic mass redistribution (DMR, AUC), peptide validation. It is filed as cell-based. As to conditions: Emax and pEC50 n.d., n = 2.
Description: as §1

Assay [15] addresses T4, GPR176. Nature of the assay: Real-time receptor internalization (AUC), peptide validation. It is filed as cell-based. As to conditions: Emax and pEC50 n.d., n = 2.
Description: as §1

The text below walks through data of article PMC6838683, “Discovery of Human Signaling Systems: Pairing Peptides to G Protein-Coupled Receptors” (Cell, 2019).

Positions of bridges follow the written chain, without caps; N, C: chain ends. Residues, ends and D or L forms follow the SMILES beside them. No end group written: not given here.

T2 sequence (Q9Y2T6 2-319 limits assumed): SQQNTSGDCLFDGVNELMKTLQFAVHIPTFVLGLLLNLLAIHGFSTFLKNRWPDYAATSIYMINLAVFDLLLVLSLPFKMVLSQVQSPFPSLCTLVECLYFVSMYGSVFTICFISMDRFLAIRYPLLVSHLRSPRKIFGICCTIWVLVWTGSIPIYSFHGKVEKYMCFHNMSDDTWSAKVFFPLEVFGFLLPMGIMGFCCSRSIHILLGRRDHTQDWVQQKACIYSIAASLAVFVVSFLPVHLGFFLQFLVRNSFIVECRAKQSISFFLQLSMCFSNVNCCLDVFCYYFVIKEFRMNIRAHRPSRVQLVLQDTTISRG

For the molecule `CSCC[C@H](NC(=O)[C@H](CO)NC(=O)[C@H](Cc1ccc(O)cc1)NC(=O)[C@@H](N)CO)C(=O)N[C@@H](CCC(=O)O)C(=O)N[C@@H](Cc1c[nH]cn1)C(=O)N[C@@H](Cc1ccccc1)C(=O)N[C@@H](CCCNC(=N)N)C(=O)N[C@@H](Cc1c[nH]c2ccccc12)C(=O)NCC(=O)N[C@@H](CCCCN)C(=O)N1CCC[C@H]1C(=O)N[C@H](C(N)=O)C(C)C` [Alpha-MSH (des-acetyl MSH)], the “Emax, Internalization (AUC)” value in [1] (data from single experiment (n = 1)) is given as 2.9. Besides, in [1] (mean, SEM and n), the “Emax, DMR (peak)” value was 39.5. The EC50 was 36.3 nM in assay [1] (mean, SEM and n, read-out: pEC50, DMR (peak) (converted)); 10000 nM in [2] (read-out: pEC50, IP1 (converted)). Besides, in assay [2], the “Emax, IP1” value came out at 60.8 nM. Also, the “Comment on response, Tango (fold over basal); Emax and pEC50 n.d.” value in assay [3] was “No response”.
Take `CC[C@H](C)[C@H](NC(=O)[C@@H](NC(=O)[C@H](Cc1c[nH]c2ccccc12)NC(=O)[C@H](CCC(=O)O)NC(=O)[C@H](CO)NC(=O)[C@@H](NC(=O)[C@H](CO)NC(=O)[C@@H]1CSSC[C@H](NC(=O)[C@H](CC(=O)O)NC(=O)[C@@H](N)CCC(=O)O)C(=O)N[C@@H](CCCCN)C(=O)N[C@@H](Cc2ccc(O)cc2)C(=O)N[C@@H]([C@@H](C)CC)C(=O)N[C@@H](C(C)C)C(=O)N[C@@H](C(C)C)C(=O)N[C@@H](CCC(=O)O)C(=O)N[C@@H](CCCCN)C(=O)N[C@@H](CCCCN)C(=O)N[C@@H](CC(=O)O)C(=O)N2CCC[C@H]2C(=O)N[C@@H](CCCCN)C(=O)N[C@@H](CCCCN)C(=O)N[C@@H]([C@@H](C)O)C(=O)N1)C(C)C)[C@@H](C)CC)C(=O)O` [MSMB (91-114)] (H-EDCKYIVVEKKDPKKTCSVSEWII-OH; disulfide 3-17; N-terminus and C-terminus assumed): the “Emax, DMR (AUC)” value in assay [4] is reported as 169875.0. Besides, the EC50 is 224 nM in [4] (read-out: pEC50, DMR (AUC) (converted)) and 2690 nM in assay [5] (read-out: pEC50, Internalization (AUC) (converted)). Moreover, in assay [5], the “Emax, Internalization (AUC)” value was determined as 37.6. The “Comment on response, Tango (fold over basal); Emax and pEC50 n.d.” value in assay [6] was “No response”.
As to “GPR15L: longest 57-residue cleavage variant of C10orf99 with two intramolecular disulfide bridges (KRRPAKAWSGRRTRLCCHRVPSPNSTNLKGHHVRLCKPCKLEPEPRLWVVPGALPQV; disulfide (positions not given here))”, the “fold improved potency over the 11-amino acid peptide at GPR15” value in assay [7] is 100 fold. Also, the “Peptide pairing for orphan receptor GPR15 (confirmed/unconfirmed)” value in [8] is given as “Confirmed peptide pairings for orphans”. Also, in assay [9], the “Active in DMR/internalization” value is recorded as “Yes”.
Take RSVNPYLQ [SCG5 (181-188)]: the “Comment on response, DMR (AUC); Emax and pEC50 n.d.” value in [10] is “No response”. In assay [11], the “Comment on response, Internalization (AUC); Emax and pEC50 n.d.” value is given as “No response”.
As for “SYSMEHFRWGKPVGKKRRPVKVYPNGAEDESAEAFPLEF [Peptide 208]”, in assay [12], the “Emax, Tango (fold over basal)” value was 8.0 fold over basal and the “pEC50, Tango (fold over basal)” value was 5.06. Also, in [13], the “Active at: (activity in b-arrestin recruitment assays)” value was “MC4R”. Moreover, the “Comment, DMR (AUC)” value in [14] was “No response”. In [15], the “Comment, Internalization (AUC)” value is “No response”.
